Measured values as given in patent EP2884284A1, “Dry diagnostic reagent” (priority 2013, dated 2015).

Key:
[1] = Glass transition temperature Tg by differential scanning calorimetry; type: physicochemical
Protocol: Hydranal® Coulomat AG Oven served as a reagent. About 10 mg of the substance was used for an expected residual moisture between 5 - 10%(m/m) and about 50 - 80 mg were used for an expected moisture content […]. […]
Primary drying was carried out at Tinlet = -30° C / 30mtorr for 15h followed by secondary drying at 40°C / 30mtorr for 6h with a heating rate between the two steps of 0.3 °C/min. The glass transition temperature as well as the residual moisture content were measured after freeze drying for the respective substance.

[2] = Hygroscopicity measurement by mass increase in a glove box at relative air humidity > 50%; type: physicochemical; conditions: 1.0g sample, 22.5°C to […], 96 hours, referring to the initial mass
Protocol: The hygroscopicity of compounds was measured by weighing (Mettler AT261 "Delta Range" balance) in the samples at the start of the experiment and at certain time points within a total period of 96 hours. The increase in mass (in %) was calculated for each sample as: (mt -mt0)/(mt0) × 100% [formula] • wherein mt is the mass of the sample at a certain time t and Mt0 is the mass of the sample at the start when placing it in the glove box.

citrated whole blood [3] = experiment: ROTEM ex-tem assay, recalcification with freeze-dried pellets; conditions: p = 0.05, n = 10
Protocol: The compatibility with coagulation measurement was determined using the ROTEM® device. The measurement was conducted according to the respective automated ROTEM® sequence. 300 µL citrated whole blood (obtained from healthy individuals) were used for each measurement. The pipetting of the respective liquid reagents was performed according to the sequence or was skipped for the solid reagents. […] Coagulation was initiated using the tissue factor based ex-tem® reagent.
The ex-tem® assay was selected because of the tissue factor coagulation activation and the resulting short clotting times (CT). Therefore it was possible to investigate whether the freeze-dried products containing a high amount of solid would dissolve rapidly enough to assure complete recalcification and clotting times within a normal range.

citrated whole blood [4] = experiment: ROTEM NATEM assay, recalcification only (contact pathway activation)
Protocol: (§1) The influence of CLG on coagulation was determined using a ROTEM® device (TEM Innovations GmbH, Germany) and whole blood from healthy volunteers using either the EXTEM assay or the NATEM assay. Coagulation was therefore either initiated using the tissue factor based ex-tem® reagent (+recalcification) (TEM Innovations GmbH, Germany) or only by recalcification of the citrated whole blood sample. […]; ROTEM® reagent; TEM Innovations GmbH, Germany). Solutions of CLG were taken to show the influence of the substance independent of the dissolution behavior of the substance.
In addition the clotting properties were investigated when coagulation of whole blood (using 300µL of citrated whole blood) was not initiated using tissue factor but only contact pathway activation, i.e. the citrated whole blood was recalcified using either the star-tem@ reagent or a CLG solution. The measurement was performed according to the automated ROTEM® sequence. Normal values were taken from the "expected values" section of the "instructions for use" sheet provided together with the star-tem@ reagent. A comparison was carried out with the star-tem@ reagent and the CLG solution with a concentration of 396 mg/mL of example 2. […] Table 1: Measurement values of the data determined in Example 2

citrated whole blood [5] = experiment: ROTEM EXTEM assay, recalcification with CLG solutions, tissue factor activation; conditions: CLG solution 396 mg/mL, 4 µL in 300 µL citrated whole blood, extem reagent, student t test p = 0.05, n = 10
Protocol: as §1
In detail, 300 µL citrated whole blood were taken, mixed with 4 µL of the respective solution of CLG of each concentration or of the star-tem@ reagent, and 16 µL of a 0.9% (m/V) NaCl-solution in ultrapure water. Blood clotting was initiated using the tissue factor based extem® reagent. […] Therefore it is possible to recalcify standard citrated whole blood and restore its clotting ability by using CLG solutions. This is depicted in Figure 2, wherein the data of a ROTEM experiment using two differently concentrated solutions of CLG (320 mg/mL and 396 mg/mL) were used. […]

[6] = Dissolution of the freeze-dried product on contact with a water surface; type: physicochemical; conditions: freeze-dried from c = 320 mg/mL
Description: In addition, no collapse or meltback could be detected when CLG was freeze-dried appropriately. CLG is, however, evidently metastable as a solid, i.e. amorphous.

[7] = freeze-dried CLG pellets, 4µmol equivalent
[8] = freeze-dried CLG pellets, lower amount of CLG
[9] = 300µL citrated whole blood, CLG solution 396 mg/mL or star-tem reagent, no tissue factor

## calcium lacto gluconate [CLG]
[1]; 1:1 (CL:CG) mixture, moisture content 5.71 % [m/m]
  glass transition: ~87.20 °C
[1]; 2:1 (CL:CG) mixture, moisture content 6.52 % [m/m]
  glass transition: about 84.90 °C
[1]; CLG ratio 0, moisture content 0 %(m/m)
  Tg: 110.03 °C
[1]; CLG ratio 0, moisture content 3.69 %(m/m)
  Tg: 79.16 °C
[1]; CLG ratio 0, moisture content 9.86 %(m/m)
  Tg: 29.77 °C
[1]; CLG ratio 0, moisture content 14.30 %(m/m)
  Tg: 14.26 °C
[1]; CLG ratio 28.93, moisture content 0 %(m/m)
  Tg: 125.01 °C
[1]; CLG ratio 28.93, moisture content 4.54 %(m/m)
  Tg: 92.14 °C
[1]; CLG ratio 28.93, moisture content 5.71 %(m/m)
  Tg: 87.20 °C
[1]; CLG ratio 28.93, moisture content 8.30 %(m/m)
  Tg: 61.35 °C
[1]; CLG ratio 28.93, moisture content 9.91 %(m/m)
  Tg: 40.75 °C
[1]; CLG ratio 50.44, moisture content 6.52 %(m/m)
  Tg: 84.9 °C
[1]; CLG ratio 62.23, moisture content 0 %(m/m)
  Tg: 144.37 °C
[1]; CLG ratio 62.23, moisture content 10.00 %(m/m)
  Tg: 58.91 °C
[1]; CLG ratio 62.23, moisture content 10.37 %(m/m)
  Tg: 56.54 °C
[1]; CLG ratio %(m(CL)/m(CLG)) = 100, moisture content 0 %(m/m) (annealed)
  Tg: 152.06 °C
[1]; CLG ratio %(m(CL)/m(CLG)) = 100, moisture content 5.20 %(m/m)
  Tg: 112.86 °C
[1]; CLG ratio %(m(CL)/m(CLG)) = 100, moisture content 10.15 %(m/m)
  Tg: 58.45 °C
[1]; CLG ratio %(m(CL)/m(CLG)) = 100, moisture content […](m/m)
  Tg: 34.39 °C
[2]
  mass increase: < 0.1%
Citrated whole blood [3]; freeze-dried CLG pellets versus 20µL star-tem reagent, ex-tem activation
  CT values, difference to reference: no significant (p = 0.05; n = 10) difference
Citrated whole blood [3]; [7]
  amplitudes after 10 minutes reaction time (A10), difference to reference: Neither the clot formation times (CFT) nor the amplitudes after 10 minutes reaction time (A10) of the 4µmol equivalent did significantly (p = 0.05, n = 10) differ from the reference
  clot formation times (CFT), difference to reference: Neither the clot formation times (CFT) nor the amplitudes after 10 minutes reaction time (A10) of the 4µmol equivalent did significantly (p = 0.05, n = 10) differ from the reference
Citrated whole blood [3]; [8]
  A10, difference to reference: slight but significant (p = 0.05, n = 10) variations
  CFT, difference to reference: slight but significant (p = 0.05, n = 10) variations
Citrated whole blood [4]; [9]
  CFT: 183.00
  alpha: 54.67 °
Citrated whole blood [4]; CLG solution 396 mg/mL versus star-tem reagent
  difference between clotting time: around 3%
Citrated whole blood [4]; amplitude after 10 minutes, 300µL citrated whole blood, CLG solution 396 mg/mL or star-tem reagent, no tissue factor
  A10: 42.33
Citrated whole blood [4]; maximum clot firmness, 300µL citrated whole blood, CLG solution 396 mg/mL or star-tem reagent, no tissue factor
  MCF: 51.33
Citrated whole blood [5]
  clotting time (CT), difference to star-tem solution: no significant (student t test; probability p = 0.05, n = 10) difference
[6]
  dissolution of the freeze-dried product: dissolved rapidly and completely after a few seconds
